This note sets out measurements from US9499550B2 (BRISTOL-MYERS SQUIBB COMPANY, priority 2012, dated 2016).

The test system of test [1] is HCV genotype 1a (H77 strain) replicon in HUH-7 cells. The test is described as follows: HCV replicon luciferase reporter assay, genotype 1a. As to conditions: Hepatitis C virus, Huh-7, 72 h, HCV genotype 1a replicon luciferase, 3 days incubation. The test is classed as cell-based. The method in brief:
(§1)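 Replicon inhibition for both genotypes was measured as Renilla luciferase signal (EnduRen, 7.5 μM final, 2 h) after 3-day, 37° C exposure of replicon-bearing HUH-7 cells in 4% FCS DMEM, 0.5% DMSO. The 1b construct carries S1179I; the 1a H77 construct carries P1496L and S2204I. Twenty-point, 3-fold dilutions were fitted four-parametrically for EC50, and CC50 was taken from multiplexed Cell Titer-Blue.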
Background: A replicon is a self-replicating genome or part of one, used to study replication in cells.

Test [2] concerns HCV genotype 1b (Con1) replicon in HUH-7 cells. The test is described as follows: HCV replicon luciferase reporter assay, genotype 1b. Particulars: Hepatitis C virus, Huh-7, 72 h, HCV genotype 1b replicon luciferase, 3 days incubation. The test is classed as cell-based. The method in brief:
as §1

[3] abbreviates: GETYPE1A, read-out: LE_1a (EC50, range).
Where [4] appears, read: GETYPE1B, read-out: LE_1b (EC50, range).
Setting [5] is: GETYPE1A, read-out: LE_1a (EC50).
[6] abbreviates: GETYPE1B, read-out: LE_1b (EC50).

Like-named read-outs stand apart in the source and are kept apart here.

As a reminder, the EC50 is the concentration that produces a half-maximal response.

With `CCOc1ccc2nc(C(F)(F)F)c(O[C@@H]3C[C@H]4C(=O)N[C@]5(C(=O)NS(=O)(=O)C6(C)CC6)C[C@H]5/C=C\CC[C@H](C)C[C@@H](C)[C@H](NC(=O)OC(C)(C)C)C(=O)N4C3)nc2c1` [Compound 4347, tert-butyl ((2R,6S,7R,9S,13aS,14aR,16aS,Z)-2-((7-ethoxy-3-(trifluoromethyl)quinoxalin-2-yl)oxy)-7,9-dimethyl-14a-(((1-methylcyclopropyl)sulfonyl)carbamoyl)-5,16-dioxo-1,2,3,5,6,7,8,9,10,11,13a,14,14a,15,16,16a-hexadecahydrocyclopropa[e]pyrrolo[1,2-a][1,4]diazacyclopentadecin-6-yl)carbamate], the EC50 in test [1] (read-out: LE_1a (EC50, range)) is 5.01 to 35 nM; in test [2] (read-out: LE_1b (EC50, range)) it was 1.01 to 5 nM.
As for `CCOc1ccc2nc(C(F)(F)F)c(O[C@@H]3C[C@H]4C(=O)N[C@]5(C(=O)NS(=O)(=O)C6(C)CC6)C[C@H]5/C=C\CC[C@@H](C)C[C@@H](C)[C@H](NC(=O)OC(C)(C)C(F)(F)F)C(=O)N4C3)nc2c1` [Compound 4348], the values for the EC50 in test [1] (setting [3]) and in test [2] (setting [4]) were 0.51 to 1 nM and 0.1 to 0.5 nM, respectively.
Regarding `CCOc1ccc2nc(C(F)(F)F)c(O[C@@H]3C[C@H]4C(=O)N[C@]5(C(=O)NS(=O)(=O)C6(C)CC6)C[C@H]5/C=C\CC[C@H](C)C[C@@H](C)[C@H](NC(=O)OC(C)(C)C(F)(F)F)C(=O)N4C3)nc2c1` [Compound 4349], the results for the EC50 in test [1] (setting [3]) and in test [2] (setting [4]) were 5.01 to 35 nM and 1.01 to 5 nM, respectively.
As to `CC[C@@H]1C[C@H](C)CC/C=C\[C@@H]2C[C@@]2(C(=O)NS(=O)(=O)C2(C)CC2)NC(=O)[C@@H]2C[C@@H](Oc3nc4cc(OC(C)C)ccc4nc3C(F)(F)F)CN2C(=O)[C@H]1NC(=O)OC(C)(C)C(F)(F)F` [Compound 4350], the EC50 in test [1] (setting [5]) was 1.49 nM; in test [1] (setting [3]) it was 1.01 to 5 nM; in test [2] (setting [6]), 0.88 nM; in test [2] (setting [4]), 0.51 to 1 nM.
Consider `COc1cc2nc(C(F)(F)F)c(OC)nc2cc1O[C@@H]1C[C@H]2C(=O)N[C@]3(C(=O)NS(=O)(=O)C4(C)CC4)C[C@H]3/C=C\CC[C@@H](C)C[C@@H](C)[C@H](NC(=O)OC(C)(C)C)C(=O)N2C1` [Compound 4351, tert-butyl ((2R,6S,7R,9R,13aS,14aR,16aS,Z)-2-((3,7-dimethoxy-2-(trifluoromethyl)quinoxalin-6-yl)oxy)-7,9-dimethyl-14a-(((1-methylcyclopropyl)sulfonyl)carbamoyl)-5,16-dioxo-1,2,3,5,6,7,8,9,10,11,13a,14,14a,15,16,16a-hexadecahydrocyclopropa[e]pyrrolo[1,2-a][1,4]diazacyclopentadecin-6-yl)carbamate], for which the EC50 in test [1] (read-out: LE_1a (EC50, range)) fell in the range of 5.01 to 35 nM; in test [2] (read-out: LE_1b (EC50, range)), 1.01 to 5 nM.
As to `COc1cc2nc(C(F)(F)F)c(OC)nc2cc1O[C@@H]1C[C@H]2C(=O)N[C@]3(C(=O)NS(=O)(=O)C4(C)CC4)C[C@H]3/C=C\CC[C@H](C)C[C@@H](C)[C@H](NC(=O)OC(C)(C)C)C(=O)N2C1` [Compound 4352, tert-butyl ((2R,6S,7R,9S,13aS,14aR,16aS,Z)-2-((3,7-dimethoxy-2-(trifluoromethyl)quinoxalin-6-yl)oxy)-7,9-dimethyl-14a-(((1-methylcyclopropyl)sulfonyl)carbamoyl)-5,16-dioxo-1,2,3,5,6,7,8,9,10,11,13a,14,14a,15,16,16a-hexadecahydrocyclopropa[e]pyrrolo[1,2-a][1,4]diazacyclopentadecin-6-yl)carbamate], the EC50 lay within 35 to 620 nM in test [1] (read-out: LE_1a (EC50, range)) and 35 to 620 nM in test [2] (read-out: LE_1b (EC50, range)).
Consider `COc1cc2nc(C(F)(F)F)c(OC)nc2cc1O[C@@H]1C[C@H]2C(=O)N[C@]3(C(=O)NS(=O)(=O)C4(C)CC4)C[C@H]3/C=C\CC[C@@H](C)C[C@@H](C)[C@H](NC(=O)OC(C)(C)C(F)(F)F)C(=O)N2C1` [Compound 4353], for which the EC50 in test [1] (setting [3]) is 5.01 to 35 nM; in test [2] (setting [4]), 1.01 to 5 nM.
Consider `COc1cc2nc(C(F)(F)F)c(OC)nc2cc1O[C@@H]1C[C@H]2C(=O)N[C@]3(C(=O)NS(=O)(=O)C4(C)CC4)C[C@H]3/C=C\CC[C@H](C)C[C@@H](C)[C@H](NC(=O)OC(C)(C)C(F)(F)F)C(=O)N2C1` [Compound 4354], for which the EC50 in test [1] (setting [3]) and in test [2] (setting [4]) was 35 to 620 nM each time.
On to `CC[C@@H]1C[C@H](C)CC/C=C\[C@@H]2C[C@@]2(C(=O)NS(=O)(=O)C2(C)CC2)NC(=O)[C@@H]2C[C@@H](Oc3ncc(OC)c4ccc(F)cc34)CN2C(=O)[C@H]1NC(=O)c1ccn(C)n1` [Compound 4356, (2R,6S,7R,9R,13aS,14aR,16aS,Z)-7-ethyl-2-((7-fluoro-4-methoxyisoquinolin-1-yl)oxy)-9-methyl-6-(1-methyl-1H-pyrazole-3-carboxamido)-N-((1-methylcyclopropyl)sulfonyl)-5,16-dioxo-1,2,3,5,6,7,8,9,10,11,13a,14,14a,15,16,16a-hexadecahydrocyclopropa[e]pyrrolo[1,2-a][1,4]diazacyclopentadecine-14a-carboxamide], for which the EC50 in test [1] (read-out: LE_1a (EC50, range)) was in the range of 0.51 to 1 nM; in test [2] (read-out: LE_1b (EC50, range)), 0.1 to 0.5 nM.
On to `CC[C@@H]1C[C@H](C)CC/C=C\[C@@H]2C[C@@]2(C(=O)NS(=O)(=O)C2(C)CC2)NC(=O)[C@@H]2C[C@@H](Oc3ncc(OC)c4ccc(F)cc34)CN2C(=O)[C@H]1NC(=O)O[C@H](C)C(F)(F)F` [Compound 4357, (R)-1,1,1-trifluoropropan-2-yl ((2R,6S,7R,9R,13aS,14aR,16aS,Z)-7-ethyl-2-((7-fluoro-4-methoxyisoquinolin-1-yl)oxy)-9-methyl-14a-(((1-methylcyclopropyl)sulfonyl)carbamoyl)-5,16-dioxo-1,2,3,5,6,7,8,9,10,11,13a,14,14a,15,16,16a-hexadecahydrocyclopropa[e]pyrrolo[1,2-a][1,4]diazacyclopentadecin-6-yl)carbamate], for which the EC50 in test [1] (read-out: LE_1a (EC50, range)) was in the range of 1.01 to 5 nM; in test [2] (read-out: LE_1b (EC50, range)) it was 0.51 to 1 nM.
For `CCOc1ccc2nc(O)c(O[C@@H]3C[C@H]4C(=O)N[C@]5(C(=O)NS(=O)(=O)C6(C)CC6)C[C@H]5/C=C\CC[C@@H](C)C[C@@H](CC)[C@H](NC(=O)OC(C)(C)C)C(=O)N4C3)nc2c1` [Compound 4361, tert-butyl ((2R,6S,7R,9R,13aS,14aR,16aS,Z)-2-((7-ethoxy-3-hydroxyquinoxalin-2-yl)oxy)-7-ethyl-9-methyl-14a-(((1-methylcyclopropyl)sulfonyl)carbamoyl)-5,16-dioxo-1,2,3,5,6,7,8,9,10,11,13a,14,14a,15,16,16a-hexadecahydrocyclopropa[e]pyrrolo[1,2-a][1,4]diazacyclopentadecin-6-yl)carbamate], the concentration for a half-maximal effect (EC50) in test [1] (read-out: LE_1a (EC50, range)) is 35 to 620 nM; in test [2] (read-out: LE_1b (EC50, range)), 5.01 to 35 nM.
The like results for `CC[C@@H]1C[C@H](C)CC/C=C\[C@@H]2C[C@@]2(C(=O)NS(=O)(=O)C2(C)CC2)NC(=O)[C@@H]2C[C@@H](Oc3nc4cc(OC(C)C)ccc4nc3C(F)(F)F)CN2C(=O)[C@H]1NC(=O)OC(C)(C)C` [Compound 4362, tert-butyl ((2R,6S,7R,9R,13aS,14aR,16aS,Z)-7-ethyl-2-((7-isopropoxy-3-(trifluoromethyl)quinoxalin-2-yl)oxy)-9-methyl-14a-(((1-methylcyclopropyl)sulfonyl)carbamoyl)-5,16-dioxo-1,2,3,5,6,7,8,9,10,11,13a,14,14a,15,16,16a-hexadecahydrocyclopropa[e]pyrrolo[1,2-a][1,4]diazacyclopentadecin-6-yl)carbamate] were, in that order, 1.01 to 5 nM and 0.51 to 1 nM.
As to `CCOc1ccc2nc(C(F)(F)F)c(O[C@@H]3C[C@H]4C(=O)N[C@]5(C(=O)NS(=O)(=O)C6(C)CC6)C[C@H]5/C=C\CC[C@@H](C)C[C@@H](CC)[C@H](NC(=O)OC(C)(C)C)C(=O)N4C3)nc2c1` [Compound 4363, tert-butyl ((2R,6S,7R,9R,13aS,14aR,16aS,Z)-2-((7-ethoxy-3-(trifluoromethyl)quinoxalin-2-yl)oxy)-7-ethyl-9-methyl-14a-(((1-methylcyclopropyl)sulfonyl)carbamoyl)-5,16-dioxo-1,2,3,5,6,7,8,9,10,11,13a,14,14a,15,16,16a-hexadecahydrocyclopropa[e]pyrrolo[1,2-a][1,4]diazacyclopentadecin-6-yl)carbamate], the EC50 in test [1] (read-out: LE_1a (EC50, range)) lay in the range of 1.01 to 5 nM; in test [2] (read-out: LE_1b (EC50, range)), 0.1 to 0.5 nM.
As for `CC[C@@H]1C[C@H](C)CC/C=C\[C@@H]2C[C@@]2(C(=O)NS(=O)(=O)C2(C)CC2)NC(=O)[C@@H]2C[C@@H](Oc3cc4nc(OC)c(C(F)(F)F)nc4cc3OC)CN2C(=O)[C@H]1NC(=O)OC(C)(C)C` [Compound 4365, tert-butyl ((2R,6S,7R,9R,13aS,14aR,16aS,Z)-2-((3,7-dimethoxy-2-(trifluoromethyl)quinoxalin-6-yl)oxy)-7-ethyl-9-methyl-14a-(((1-methylcyclopropyl)sulfonyl)carbamoyl)-5,16-dioxo-1,2,3,5,6,7,8,9,10,11,13a,14,14a,15,16,16a-hexadecahydrocyclopropa[e]pyrrolo[1,2-a][1,4]diazacyclopentadecin-6-yl)carbamate], the EC50 in test [1] (read-out: LE_1a (EC50, range)) is 5.01 to 35 nM; in test [2] (read-out: LE_1b (EC50, range)) it was 5.01 to 35 nM.
As to `COc1ccc2nc(C)c(O[C@@H]3C[C@H]4C(=O)N[C@]5(C(=O)NS(=O)(=O)C6(C)CC6)C[C@H]5/C=C\CC[C@@H](C)C[C@@H](C)[C@H](NC(=O)OC(C)(C)C(F)(F)F)C(=O)N4C3)nc2c1` [Compound 4366], the EC50 is 0.58 nM in test [1] (setting [5]), 0.51 to 1 nM in test [1] (setting [3]), 0.25 nM in test [2] (setting [6]) and 0.1 to 0.5 nM in test [2] (setting [4]).
